Results from EPA's ToxRefDB 2.

How the values were obtained:
mouse [1] = details: Carcinogenicity, b6c3f1, Oral, Feed, dose end: 104 week
rat [2] = details: Combined chronic toxicity/carcinogenicity, other, Oral, Feed, dose end: 105 week
dog = details: Subchronic oral toxicity in nonrodent, beagle, Capsule, dose end: 5 month
mouse [3] = details: Combined chronic toxicity/carcinogenicity, b6c3f1, Oral, Feed, dose end: 2 year
mouse [4] = details: Prenatal developmental toxicity study, cd1, Oral, Gavage/Intubation, dose end: 15 GD
rabbit [5] = details: Prenatal developmental toxicity study, new zealand white, Oral, Gavage/Intubation, dose end: 19 GD
rabbit [6] = details: Prenatal developmental toxicity study, new zealand white, Oral, Gavage/Intubation, dose end: 19 GD; remark: listed apart in the source
rat [7] = details: Prenatal developmental toxicity study, sprague dawley, Oral, Gavage/Intubation, dose end: 15 GD
mouse [8] = details: Combined chronic toxicity/carcinogenicity, cd1, Oral, Feed, dose end: 24 month
rat [9] = details: Multigenerational reproductive toxicity study, other, Oral, Feed, dose end: 2 generation
[10] = group: cholinesterase, cholinesterase / cholinesterase / cholinesterase / erythrocyte cholinesterase (che) + cholinesterase / cholinesterase / cholinesterase / …
[11] = group: systemic, systemic / organ weight / lung / absolute
[12] = group: cholinesterase, cholinesterase / cholinesterase / cholinesterase / brain cholinesterase (che) + cholinesterase / cholinesterase / cholinesterase / …
[13] = group: systemic, systemic / hematology / erythrocyte (rbc) count differential / erythrocyte (rbc) + systemic / hematology / hematocrit (hct) / hematocrit (…
[14] = group: cholinesterase, cholinesterase / cholinesterase / cholinesterase / plasma cholinesterase (che)
[15] = group: cholinesterase, cholinesterase / cholinesterase / cholinesterase / plasma cholinesterase (che) + cholinesterase / cholinesterase / cholinesterase / brain …
[16] = group: systemic, systemic / in life observation / clinical signs / soft stools
[17] = group: systemic, systemic / in life observation / body weight / body weight gain + systemic / pathology microscopic / kidney / regeneration
[18] = group: developmental, developmental / developmental malformation / bone / exencephaly + developmental / developmental malformation / bone / fused + developmental…
[19] = group: maternal, reproductive / reproductive performance / postimplantation loss / postimplantation loss + systemic / in life observation / body weight / …
[20] = group: developmental, developmental / developmental malformation / bone / [other] + developmental / developmental malformation / bone / absent + developmental / …
[21] = group: developmental, systemic / in life observation / body weight / fetal weight
[22] = group: maternal, reproductive / reproductive performance / implantations / implantations + systemic / in life observation / body weight / body weight gain + …
[23] = group: developmental, developmental / developmental malformation / general / [other]
[24] = group: maternal, systemic / in life observation / body weight / body weight + systemic / in life observation / body weight / body weight gain + systemic / in…
[25] = group: cholinesterase, cholinesterase / cholinesterase / cholinesterase / brain cholinesterase (che)
[26] = group: cholinesterase, cholinesterase / cholinesterase / cholinesterase / brain cholinesterase (che) + cholinesterase / cholinesterase / cholinesterase / plasma …
[27] = group: systemic, systemic / pathology microscopic / liver / adenoma + systemic / pathology gross / liver / mass
[28] = group: systemic, systemic / pathology microscopic / liver / adenoma + systemic / pathology microscopic / liver / adenoma/carcinoma combined + systemic / …
[29] = group: offspring, systemic / pathology microscopic / ureter / hyperplasia
[30] = group: parental, systemic / in life observation / clinical signs / motor activity

Work on `CCCSP(=O)(OCC)SCCC` [Ethoprop] yielded an LEL (mouse [1]; [10]) of 0.254 mg/kg/day, an LOAEL (mouse [1]; [10]) of 0.254 mg/kg/day and an NEL (mouse [1]; [10]) of 0.026 mg/kg/day. The NOAEL (mouse [1]; [10]) was 0.026 mg/kg/day, the LOAEL (mouse [1]; group: systemic, systemic / in life observation / body weight / body weight + systemic / in life observation / body weight / body weight gain) was 3.96 mg/kg/day and the NOAEL (mouse [1]; group: systemic, systemic / in life observation / body weight / body weight + systemic / in life observation / body weight / body weight gain + systemic / in…) was 0.254 mg/kg/day. For the same compound, the LEL (mouse [1]; [11]) was 0.032 mg/kg/day, the NEL (mouse [1]; [11]) was < 0.032 mg/kg/day and the LEL (rat [2]; [12]) was 3 mg/kg/day. The LOAEL (rat [2]; [12]) was 3 mg/kg/day, the NEL (rat [2]; [12]) was 0.05 mg/kg/day and the NOAEL (rat [2]; [12]) was 0.05 mg/kg/day. The LEL (rat [2]; [13]) was 20 mg/kg/day, the LOAEL (rat [2]; [13]) was 20 mg/kg/day and the NOAEL (rat [2]; [13]) was 3 mg/kg/day. For the same compound, the NEL (rat [2]; group: systemic, systemic / organ weight / kidney / relative to body weight + systemic / organ weight / thyroid gland / relative to body weight) was 3 mg/kg/day, the LEL (dog; [14]) was 0.025 mg/kg/day and the LOAEL (dog; [14]) was 0.025 mg/kg/day. The NEL (dog; [15]) was 0.01 mg/kg/day, the NOAEL (dog; [15]) was 0.01 mg/kg/day and the LEL (dog; [16]) was 0.025 mg/kg/day. The LOAEL (dog; [16]) was > 1 mg/kg/day, the NEL (dog; [16]) was 0.01 mg/kg/day and the NOAEL (dog; [16]) was ≥ 1 mg/kg/day. For the same compound, the LEL (mouse [3]; [10]) was 0.306 mg/kg/day, the LOAEL (mouse [3]; [10]) was 0.306 mg/kg/day and the NEL (mouse [3]; [10]) was 0.032 mg/kg/day. For the same compound, the NOAEL (mouse [3]; [10]) was 0.032 mg/kg/day, the LOAEL (mouse [3]; group: systemic, systemic / in life observation / body weight / body weight gain) was 4.44 mg/kg/day and the NEL (mouse [3]; [17]) was 0.032 mg/kg/day. It also gave an NOAEL (mouse [3]; [17]) of 0.306 mg/kg/day and an LEL (mouse [3]; group: systemic, systemic / pathology microscopic / kidney / regeneration) of 0.306 mg/kg/day.

For `CCOCCOCC` [Ethylene glycol diethyl ether], the LEL (mouse [4]; [18]) was 500 mg/kg/day, the LOAEL (mouse [4]; [18]) was > 1000 mg/kg/day and the NEL (mouse [4]; [18]) was 150 mg/kg/day. The NOAEL (mouse [4]; [18]) was ≥ 1000 mg/kg/day, the LEL (mouse [4]; [19]) was 1000 mg/kg/day and the LOAEL (mouse [4]; [19]) was > 1000 mg/kg/day. For the same compound, the NEL (mouse [4]; [19]) was 500 mg/kg/day, the NOAEL (mouse [4]; [19]) was ≥ 1000 mg/kg/day and the LEL (rabbit [5]; [20]) was 100 mg/kg/day. For the same compound, the LOAEL (rabbit [5]; [20]) was > 100 mg/kg/day, the NEL (rabbit [5]; [20]) was 50 mg/kg/day and the NOAEL (rabbit [5]; [20]) was ≥ 100 mg/kg/day. For the same compound, the LEL (rabbit [5]; [19]) was 100 mg/kg/day, the LOAEL (rabbit [5]; [19]) was > 100 mg/kg/day and the NEL (rabbit [5]; [19]) was 50 mg/kg/day. For the same compound, the NOAEL (rabbit [5]; [19]) was ≥ 100 mg/kg/day.

For `CN(C)c1ccc(C(=C2C=CC(=[N+](C)C)C=C2)c2ccc(N(C)C)cc2)cc1.[Cl-]` [Gentian Violet], the LEL (rabbit [6]; [21]) was 0.5 mg/kg/day, the LOAEL (rabbit [6]; [21]) was > 2 mg/kg/day and the NEL (rabbit [6]; [21]) was < 0.5 mg/kg/day. The NOAEL (rabbit [6]; [21]) was ≥ 2 mg/kg/day, the LEL (rabbit [6]; [22]) was 0.5 mg/kg/day and the LOAEL (rabbit [6]; [22]) was > 2 mg/kg/day. For the same compound, the NEL (rabbit [6]; [22]) was < 0.5 mg/kg/day, the NOAEL (rabbit [6]; [22]) was ≥ 2 mg/kg/day and the LEL (rat [7]; [23]) was 10 mg/kg/day. The LOAEL (rat [7]; [23]) was > 10 mg/kg/day, the NEL (rat [7]; [23]) was 5 mg/kg/day and the NOAEL (rat [7]; [23]) was ≥ 10 mg/kg/day. For the same compound, the LOAEL (rat [7]; [24]) was > 10 mg/kg/day, the NEL (rat [7]; [24]) was 2.5 mg/kg/day and the NOAEL (rat [7]; [24]) was ≥ 10 mg/kg/day. It also gave an LEL (rat [7]; group: maternal, systemic / in life observation / body weight / body weight gain) of 5 mg/kg/day.

`COc1nn(CSP(=S)(OC)OC)c(=O)s1` [Methidathion] showed an LEL (mouse [8]; [25]) of 1.6 mg/kg/day, an LOAEL (mouse [8]; [25]) of 7.5 mg/kg/day and an NEL (mouse [8]; [26]) of 0.46 mg/kg/day. The NOAEL (mouse [8]; [26]) was 1.6 mg/kg/day, the LEL (mouse [8]; [27]) was 0.46 mg/kg/day and the NEL (mouse [8]; [27]) was < 0.46 mg/kg/day. For the same compound, the LOAEL (mouse [8]; [28]) was 7.5 mg/kg/day and the NOAEL (mouse [8]; [28]) was 1.6 mg/kg/day.

With `COc1cc(OC)nc(NC(=O)NS(=O)(=O)Nc2ccccc2C(=O)N(C)C)n1` [Orthosulfamuron] the LEL (rat [9]; [29]) was 765 mg/kg/day, the LOAEL (rat [9]; [29]) was > 765 mg/kg/day and the NEL (rat [9]; [29]) was 205 mg/kg/day. For the same compound, the NOAEL (rat [9]; [29]) was ≥ 765 mg/kg/day, the LEL (rat [9]; [30]) was 635 mg/kg/day and the LOAEL (rat [9]; [30]) was 635 mg/kg/day. The NEL (rat [9]; [30]) was 145 mg/kg/day and the NOAEL (rat [9]; [30]) was 145 mg/kg/day.
